≈ marks a conversion by molar mass, not a printed value.
Tests used:
Jurkat = experiment: Antiproliferative activity against human Jurkat cells assessed as inhibition of cell growth incubated for 3 days by SYTOX blue staining based flow cytometry analysis; assay type: functional; conditions: 72 h
[1] = biological target: N-acetyllactosaminide beta-1,3-N-acetylglucosaminyltransferase 4 (Homo sapiens, UniProt Q9C0J1); experiment: Inhibition of B3GNT4 (unknown origin) using Beta-lactose and UDP-GlcNAc as substrate incubated for 1.5 to 2 hrs by UDP-Glo based analysis
Chain of N-acetyllactosaminide beta-1,3-N-acetylglucosaminyltransferase 4 (Q9C0J1 whole entry): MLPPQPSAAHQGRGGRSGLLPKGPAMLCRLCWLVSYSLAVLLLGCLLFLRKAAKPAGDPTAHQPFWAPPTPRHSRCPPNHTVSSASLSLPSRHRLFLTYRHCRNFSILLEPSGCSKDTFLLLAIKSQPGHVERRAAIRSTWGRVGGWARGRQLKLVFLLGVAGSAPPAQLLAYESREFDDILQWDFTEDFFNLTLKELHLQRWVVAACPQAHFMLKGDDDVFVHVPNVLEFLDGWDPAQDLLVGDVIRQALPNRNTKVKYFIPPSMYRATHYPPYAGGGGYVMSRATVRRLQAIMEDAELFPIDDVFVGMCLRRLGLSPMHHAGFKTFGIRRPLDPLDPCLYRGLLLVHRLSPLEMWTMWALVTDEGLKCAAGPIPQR

[2] = biological target: T1, N-acetyllactosaminide beta-1,3-N-acetylglucosaminyltransferase 2 (Homo sapiens, UniProt Q9NY97); experiment: Inhibition of B3GNT2 (unknown origin) using N-acetyl-lactosamine and UDP-GlcNAc as substrate incubated for 1.5 to 2 hrs by UDP-Glo based analysis
T1 sequence (Q9NY97 whole entry): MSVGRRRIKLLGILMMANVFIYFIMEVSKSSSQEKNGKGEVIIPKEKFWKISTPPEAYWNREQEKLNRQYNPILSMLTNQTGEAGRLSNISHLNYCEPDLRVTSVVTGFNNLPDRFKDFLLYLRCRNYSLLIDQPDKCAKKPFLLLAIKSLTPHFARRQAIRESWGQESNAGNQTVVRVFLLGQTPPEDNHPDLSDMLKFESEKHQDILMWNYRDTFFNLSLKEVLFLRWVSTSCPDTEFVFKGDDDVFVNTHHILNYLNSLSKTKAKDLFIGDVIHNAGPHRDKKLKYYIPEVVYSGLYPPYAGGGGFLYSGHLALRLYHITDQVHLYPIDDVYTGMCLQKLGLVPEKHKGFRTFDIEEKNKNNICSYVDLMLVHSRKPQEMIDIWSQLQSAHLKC

[3] = Permeability of compound across apical to basolateral in MDCK-II cells incubated for 2 hrs by LC-MS/MS analysis; assay type: ADME, cell-based, Canis lupus familiaris; conditions: dog, read-out: permeability
[4] = Clearance in mouse at 5 mg/kg, po; assay type: ADME, organism-based; conditions: in vivo; for CL: po, 5 mg/kg
[5] = Solubility of compound in HCL incubated for 48 to 72 hrs by LC-MS analysis; assay type: physicochemical; conditions: time 48-72 hrs
[6] = Solubility of compound in PBS incubated for 48 to 72 hrs by LC-MS analysis; assay type: physicochemical; conditions: time 48-72 hrs
[7] = Microsomal stability in rat liver microsome assessed as intrinsic clearance at 1 uM incubated for 20 mins in presence of NADPH by LC-MS/MS analysis; assay type: ADME; conditions: liver microsomes, read-out: CLH
[8] = Volume of distribution at steady state in mouse at 5 mg/kg, po; assay type: ADME, organism-based; conditions: in vivo
[9] = Microsomal stability in mouse liver microsome assessed as intrinsic clearance at 1 uM incubated for 20 mins in presence of NADPH by LC-MS/MS analysis; assay type: ADME; conditions: liver microsomes, read-out: CLH
[10] = Oral bioavailability in mouse at 5 mg/kg; assay type: ADME, organism-based; conditions: in vivo
[11] = Microsomal stability in human liver microsome assessed as intrinsic clearance at 1 uM incubated for 20 mins in presence of NADPH by LC-MS/MS analysis; assay type: ADME; conditions: liver microsomes, read-out: CLH
[12] = Half life in mouse at 5 mg/kg, po; assay type: ADME, organism-based; conditions: in vivo; for t1/2: po, 5 mg/kg
[13] = Solubility of compound in FeSSIF incubated for 48 to 72 hrs by LC-MS analysis; assay type: physicochemical; conditions: time 48-72 hrs

| SMILES | IC50 (Jurkat) [µM] | IC50 [1] [µM] | IC50 ([2]; read-out: IC50) [µM] | also measured |
| --- | --- | --- | --- | --- |
| C[C@@H](n1c(=O)[nH]c2ccc(C(=O)O)cc21)C(C)(C)C | > 85 | 122 | 0.26 | – |
| C[C@H](NC(=O)c1ccc2[nH]c(=O)n([C@H](C)C(C)(C)C)c2c1)c1cnc(Cl)nc1 | 15.3 | > 250 | 0.076 | – |
| C[C@H](NC(=O)c1ccc2[nH]c(=O)n([C@H](C)C(C)(C)C)c2c1)c1ccc(Cl)cc1 | 47.2 | > 250 | 0.29 | – |
| C[C@H](NC(=O)c1ccc2[nH]c(=O)n([C@H](C)C(C)(C)C)c2c1)c1cnc(C(F)(F)F)nc1 | 17.2 | > 250 | 0.07 | Papp A→B at 2 h [3]: 21 ×10⁻⁶ cm/s; CL/F [4]: 13.3 mL/min/kg; solubility [5]: 180 µM (≈ 78.4 µg/mL); solubility [6]: 155 µM (≈ 67.5 µg/mL); microsomal CLint at 1 µM [7]: 42 µL/min/mg; Vdss [8]: 1.8 L/kg; microsomal CLint at 1 µM [9]: 61 µL/min/mg; bioavailability [10]: 28%; microsomal CLint at 1 µM [11]: 14 µL/min/mg; half-life [12]: 1.9 h; solubility [13]: 298 µM (≈ 130 µg/mL) |
| C[C@@H](n1c(=O)[nH]c2ccc(C3=NC(c4ccc(Cl)cn4)(c4ccc(Cl)cn4)NC3=O)cc21)C(C)(C)C | 37.1 | – | 0.2 | – |
| C[C@@H](n1c(=O)[nH]c2ccc(C(=O)N3CCOCC3)cc21)C(C)(C)C | – | > 250 | 26.6 | – |
| C[C@@H](NC(=O)c1ccc2[nH]c(=O)n([C@H](C)C(C)(C)C)c2c1)c1ccc(Cl)cc1 | – | > 250 | 2.72 | – |
| C[C@@H](n1c(=O)[nH]c2ccc(C3=N[C@](c4ccc(Cl)nc4)(c4ccccn4)NC3=O)cc21)C(C)(C)C | 5.5 | – | 0.039 | – |
| C[C@@H](n1c(=O)[nH]c2ccc(C3=NOC(C)(c4ccccc4)N3)cc21)C(C)(C)C (stereo partly specified) | 28 | – | 0.9 | – |
| C[C@@H](n1c(=O)[nH]c2ccc(C3=C[C@@](C)(c4cnc(C(F)(F)F)nc4)OC3=O)cc21)C(C)(C)C | 5.6 | – | 0.028 | – |
| C[C@H](NC(=O)c1ccc2[nH]c(=O)n([C@H](C)C(C)(C)C)c2c1)c1ncc(Cl)cn1 | 29.2 | > 250 | 0.43 | – |
| C[C@@H](n1c(=O)[nH]c2ccc(C3=NC(C)(c4cnc(C(F)(F)F)nc4)C(=O)O3)cc21)C(C)(C)C (stereo partly specified) | – | – | – | IC50 [2]: Not Active |
| Cc1ccc([C@]2(C)NC(c3ccc4[nH]c(=O)n([C@H](C)C(C)(C)C)c4c3)=NC2=O)cn1 | 5.1 | – | 0.029 | – |
| C[C@@H](n1c(=O)[nH]c2ccc(C3=N[C@@](C)(c4cnc(C(F)(F)F)nc4)NC3=O)cc21)C(C)(C)C | 3.8 | – | 0.024 | – |
| C[C@@H](n1c(=O)[nH]c2ccc(C3=N[C@@](C)(c4ccc(Cl)cn4)NC3=O)cc21)C(C)(C)C | 8.2 | – | 0.069 | – |
| C[C@@H](n1c(=O)[nH]c2ccc(C(=O)NCc3ccc(Cl)cc3)cc21)C(C)(C)C | 67.8 | > 250 | 0.61 | – |
| C[C@@H](n1c(=O)[nH]c2ccc(C3=N[C@@](C)(c4ccc5nccn5c4)NC3=O)cc21)C(C)(C)C | 38.2 | – | 0.37 | – |
| CC(C)Cn1c(=O)[nH]c2ccc(C(=O)O)cc21 | – | > 250 | 9.1 | – |
| C[C@@H](n1c(=O)[nH]c2ccc(C3=NC(=O)[C@](C)(c4cnc(C(F)(F)F)nc4)N3)cc21)C(C)(C)C | 1.1 | > 250 | 0.009 | Papp A→B at 2 h [3]: 17 ×10⁻⁶ cm/s; CL [4]: 5 mL/min/kg; solubility [5]: 329 µM (≈ 151 µg/mL); solubility [6]: 154 µM (≈ 70.9 µg/mL); microsomal CLint at 1 µM [7]: 15 µL/min/mg; Vdss [8]: 2.6 L/kg; microsomal CLint at 1 µM [9]: 15 µL/min/mg; bioavailability [10]: 54%; microsomal CLint at 1 µM [11]: 14 µL/min/mg; t1/2 [12]: 1.4 h; solubility [13]: 485 µM (≈ 223 µg/mL) |
| C[C@@H](n1c(=O)[nH]c2ccc(C(=O)NC(C)(C)c3ccc(Cl)cc3)cc21)C(C)(C)C | – | > 250 | 0.84 | – |
| Cc1ncc([C@H](C)NC(=O)c2ccc3[nH]c(=O)n([C@H](C)C(C)(C)C)c3c2)cn1 | 22.4 | > 250 | 0.12 | – |

| SMILES | IC50 (Jurkat) [µM] | IC50 [1] [µM] | IC50 ([2]; read-out: IC50) [µM] | also measured |
| --- | --- | --- | --- | --- |
| CC(C)NC(=O)c1ccc2[nH]c(=O)n([C@H](C)C(C)(C)C)c2c1 | – | > 250 | 2.9 | – |
| Cc1ncc([C@]2(C)NC(c3ccc4[nH]c(=O)n([C@H](C)C(C)(C)C)c4c3)=NC2=O)cn1 | 4.2 | > 250 | 0.024 | – |
| C[C@H](NC(=O)c1ccc2[nH]c(=O)n([C@H](C)C(C)(C)C)c2c1)c1ccc(C(F)(F)F)cn1 | 66.1 | > 250 | 0.23 | – |
| C[C@@H](n1c(=O)[nH]c2ccc(C(=O)Nc3ccccc3)cc21)C(C)(C)C | 38.8 | > 250 | 0.82 | – |
| C[C@@H](n1c(=O)[nH]c2ccc(C3=N[C@@](C)(c4cc5ccccc5[nH]4)NC3=O)cc21)C(C)(C)C | 9.9 | – | 0.055 | – |
| C[C@@H](n1c(=O)[nH]c2ccc(C3=NC(=O)[C@](C)(c4ccc(C(F)(F)F)nc4)N3)cc21)C(C)(C)C | 2.3 | – | 0.008 | Papp A→B at 2 h [3]: 15 ×10⁻⁶ cm/s; CL [4]: 5 mL/min/kg; solubility [5]: 311 µM (≈ 143 µg/mL); solubility [6]: 66 µM (≈ 30.3 µg/mL); microsomal CLint at 1 µM [7]: 14 µL/min/mg; Vdss [8]: 3.4 L/kg; microsomal CLint at 1 µM [9]: 14 µL/min/mg; bioavailability [10]: 66%; microsomal CLint at 1 µM [11]: 34 µL/min/mg; t1/2 [12]: 1.5 h; solubility [13]: 500 µM (≈ 230 µg/mL) |
| Cc1ccc([C@H](C)NC(=O)c2ccc3[nH]c(=O)n([C@H](C)C(C)(C)C)c3c2)nc1 | 8.8 | > 250 | 0.093 | – |
| C[C@H](NC(=O)c1ccc2[nH]c(=O)n([C@H](C)C(C)(C)C)c2c1)c1ccc(Cl)cn1 | 32 | > 250 | 0.23 | – |
| C[C@@H](n1c(=O)[nH]c2ccc(C3=NC(=O)[C@](C)(c4ccc(Cl)cn4)N3)cc21)C(C)(C)C | 8.1 | – | 0.066 | – |
| Cc1[nH]c2ccc([C@]3(C)N=C(c4ccc5[nH]c(=O)n([C@H](C)C(C)(C)C)c5c4)C(=O)N3)cc2c1C | – | – | 1.01 | – |
| C[C@H](NC(=O)c1ccc2[nH]c(=O)n([C@H](C)C(C)(C)C)c2c1)c1ccc(Br)cn1 | 12.5 | 169 | 0.1 | – |
| C[C@@H](n1c(=O)[nH]c2ccc(C3=N[C@]4(CCc5cc(Br)ccc54)NC3=O)cc21)C(C)(C)C | 6.4 | – | 0.053 | – |
| C[C@@H](n1c(=O)[nH]c2ccc(C3=N[C@@](Cc4ccccc4)(c4cnc(C(F)(F)F)nc4)NC3=O)cc21)C(C)(C)C | 4 | – | 0.013 | – |
| Cc1ccc([C@]2(C)NC(c3ccc4[nH]c(=O)n([C@H](C)C(C)(C)C)c4c3)=NC2=O)nc1 | 13.8 | – | 0.096 | – |
| C[C@@H](n1c(=O)[nH]c2ccc(C3=NC(=O)[C@](C)(c4ccc(C(F)(F)F)cn4)N3)cc21)C(C)(C)C | 23.8 | – | 0.03 | – |
| C[C@@H](n1c(=O)[nH]c2ccc(C3=NC(=O)[C@](C)(c4ccccc4)N3)cc21)C(C)(C)C | > 85 | > 250 | 0.6 | – |
| C[C@@H](n1c(=O)[nH]c2ccc(C3=N[C@@](c4cccnc4)(c4nnc[nH]4)NC3=O)cc21)C(C)(C)C | > 85 | – | 0.026 | – |
| Cc1[nH]c2cc(NC(=O)c3ccc4[nH]c(=O)n([C@H](C)C(C)(C)C)c4c3)ccc2c1C | 3.6 | 165 | 0.06 | – |
| C[C@H](NC(=O)c1ccc2[nH]c(=O)n([C@H](C)C(C)(C)C)c2c1)c1cnc(Cl)cn1 | 23.5 | > 250 | 0.89 | – |
| C[C@@H](n1c(=O)[nH]c2ccc(C3=NC(=O)[C@@](C)(c4ccc(Cl)cn4)N3)cc21)C(C)(C)C | – | – | 0.51 | – |
| C[C@@H](n1c(=O)[nH]c2ccc(C3=NC(=O)[C@](C)(c4ncc(Cl)cn4)N3)cc21)C(C)(C)C | 16.2 | – | 0.082 | – |

— ChEMBL document CHEMBL5344426, “Imidazolone as an Amide Bioisostere in the Development of β-1,3-N-Acetylglucosaminyltransferase 2 (B3GNT2) Inhibitors” (J Med Chem, 2023)
